Laboratory results: patent US5175158A, “Condensed diazepinones, processes for preparing them and pharmaceutical compositions containing these compounds” (Dr. Karl Thomae, GmbH, priority 1987, dated 1992)

Columns and labels:
vagal bradycardia (M2) = test: M1/M2 selectivity in the rat: reduction of vagal bradycardia (M2); assay type: in vivo, rat (male THOM); details: iv, 5 minutes before vagus stimulation, 50% reduction of vagal bradycardia (M2), read-out: log ED50, Heart (converted)
Experimental: (§1) The dosage of the substances which reduced either the vagal bradycardia (M2) or the rise in blood pressure (M1) by 50% was determined graphically. For the results see Table II.

[1] = molecular target: T1, muscarinic receptors (submandibular gland) (Rattus norvegicus, UniProt P08483); test: Receptor binding test in vitro, submandibular gland (3H-N-methylscopolamine displacement); set-up: species or system rat (male Sprague-Dawley); details: 0.3 nanomolar 3H-NMS, 30° C., 45 minutes, pH 7.4
T1 construct: All the organs were then homogenised in a Potter apparatus; from tissue; host or cells: rat submandibular gland homogenate
T1 sequence (P08483 whole entry): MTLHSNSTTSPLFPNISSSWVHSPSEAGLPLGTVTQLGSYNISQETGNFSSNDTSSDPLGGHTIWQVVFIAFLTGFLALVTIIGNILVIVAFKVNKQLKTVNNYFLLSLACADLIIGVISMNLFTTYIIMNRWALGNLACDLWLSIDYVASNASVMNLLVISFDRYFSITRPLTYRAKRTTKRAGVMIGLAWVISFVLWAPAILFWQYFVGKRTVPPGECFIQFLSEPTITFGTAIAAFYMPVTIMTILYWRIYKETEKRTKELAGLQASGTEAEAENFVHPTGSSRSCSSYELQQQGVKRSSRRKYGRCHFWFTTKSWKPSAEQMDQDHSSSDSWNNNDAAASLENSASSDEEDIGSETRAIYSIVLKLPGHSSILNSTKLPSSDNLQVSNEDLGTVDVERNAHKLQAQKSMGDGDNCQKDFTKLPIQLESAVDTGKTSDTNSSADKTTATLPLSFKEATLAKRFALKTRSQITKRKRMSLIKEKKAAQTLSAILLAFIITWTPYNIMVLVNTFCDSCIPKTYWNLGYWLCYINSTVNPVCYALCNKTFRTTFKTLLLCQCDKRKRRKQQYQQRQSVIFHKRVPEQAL
Experimental: (§2) The organs were donated by male Sprague-Dawley rats weighing 180-220 g. After the heart and submandibular gland and cerebral cortex had been removed, all other steps were carried out in ice cold Hepes HCl buffer (pH 7.4; 100 millimolar NaCl, 10 millimolar MgCl2). The whole heart was cut up with scissors. All the organs were then homogenised in a Potter apparatus.
(§3) For the binding test the homogenised organs were diluted as follows:
(§4) The homogenised organs were incubated at a certain concentration of the radioaligned and at a series of concentrations of the non-radioactive test substances in an Eppendorf centrifuge tube at 30° C. Incubation lasted 45 minutes. The radioligand used was 0.3 nanomolar ^3 H-N-methylscopolamine (^3 H-NMS). Incubation was ended by the addition of ice cold buffer followed by vacuum filtration. The filters were rinsed with cold buffer and their radioactivity was determined. It represents the sum of specific and non-specific binding of ^3 H-NMS. The proportion of non-specific binding was defined as the radioactivity which was bound in the presence of 1 micromolar quinuclidinylbenzylate. Each measurement was taken four times. The IC50 values of the non-labelled test substances were determined graphically. They represent that concentration of test substance at which the specific binding of ^3 H-NMS to the muscarinic receptors in the various organs was inhibited by 50%. […] PG,17

[2] = tested on: rise in blood pressure (M1); test: M1/M2 selectivity in the rat: reduction of rise in blood pressure caused by McN-A-343 (M1); assay type: in vivo, rat (male THOM); details: iv, 5 minutes before 0.3 mg/kg McN-A-343 i.v., 50% reduction of rise in blood pressure (M1), read-out: log ED50, Blood pressure (converted)
Experimental: as §1

[3] = tested on: acetylcholine activity on bladder; test: Inhibition of acetylcholine activity on the bladder in the guinea pig; assay type: in vivo; details: Cavia porcellus, iv, 5 min; anaesthetised guinea pig; 5 minutes after test substance; 10 microgram/kg acetylcholine i.v. and i.a.; contraction of exposed bladder; read-out: log ED50, Bladder (converted)
Experimental: (§5) 5 minutes after the administration of the test substance, 10 microgram/kg of acetylcholine were simultaneously injected intravenously and intra-arterially into anaesthetised guinea pigs. The heart rate was recorded directly by extracorporeal derivation of the ECG, the expiration resistance according to Konzett-Rossler and contraction of the exposed bladder. In order to determine the inhibition of the acetylcholine activity on the organs under investigation, dosage/activity curves were recorded and from them -log ED50 values were determined. […] The following compounds for example were investigated as described above: […]

[4] = tested on: acetylcholine activity on bronchi; test: Inhibition of acetylcholine activity on the bronchi in the guinea pig; assay type: in vivo; details: Cavia porcellus, iv, 5 min; anaesthetised guinea pig; 5 minutes after test substance; 10 microgram/kg acetylcholine i.v. and i.a.; expiration resistance (Konzett-Rossler); read-out: log ED50, Bronchi (converted)
Experimental: as §5

[5] = molecular target: muscarinic receptors (cerebral cortex); test: Receptor binding test in vitro, cerebral cortex (3H-N-methylscopolamine displacement); set-up: species or system rat (male Sprague-Dawley); details: 0.3 nanomolar 3H-NMS, 30° C., 45 minutes, pH 7.4
Experimental: as §2, §3, §4

secretion of saliva = test: Salivation-inhibiting effect in the rat (pilocarpine); assay type: in vivo, rat (male THOM); details: iv; urethane-anaesthetised rat; i.v.; 2 mg/kg pilocarpine s.c.; 50% reduction of saliva volume; read-out: log ED50, Salivation (converted)
Experimental: The secretion of saliva was initiated by subcutaneous administration of 2 mg/kg of pilocarpine. The saliva was absorbed with blotting paper and the surface area covered was measured every 5 minutes by planimetry. The dosage of the substance which reduced the volume of saliva by 50% was determined graphically. For the results see Table II.

[6] = tested on: acetylcholine activity on heart rate; test: Inhibition of acetylcholine activity on heart rate in the guinea pig; assay type: in vivo; details: Cavia porcellus, iv, 5 min; anaesthetised guinea pig; 5 minutes after test substance; 10 microgram/kg acetylcholine i.v. and i.a.; heart rate by ECG; read-out: log ED50, Heart (converted)
Experimental: as §5

[7] = molecular target: T2, muscarinic receptors (heart) (Rattus norvegicus, UniProt P10980); test: Receptor binding test in vitro, heart (3H-N-methylscopolamine displacement); set-up: species or system rat (male Sprague-Dawley); details: whole heart; 0.3 nanomolar 3H-NMS; 30° C.; 45 minutes; pH 7.4
T2 construct: The whole heart was cut up with scissors; All the organs were then homogenised in a Potter apparatus; from tissue; host or cells: rat whole heart homogenate
T2 sequence (P10980 1-466): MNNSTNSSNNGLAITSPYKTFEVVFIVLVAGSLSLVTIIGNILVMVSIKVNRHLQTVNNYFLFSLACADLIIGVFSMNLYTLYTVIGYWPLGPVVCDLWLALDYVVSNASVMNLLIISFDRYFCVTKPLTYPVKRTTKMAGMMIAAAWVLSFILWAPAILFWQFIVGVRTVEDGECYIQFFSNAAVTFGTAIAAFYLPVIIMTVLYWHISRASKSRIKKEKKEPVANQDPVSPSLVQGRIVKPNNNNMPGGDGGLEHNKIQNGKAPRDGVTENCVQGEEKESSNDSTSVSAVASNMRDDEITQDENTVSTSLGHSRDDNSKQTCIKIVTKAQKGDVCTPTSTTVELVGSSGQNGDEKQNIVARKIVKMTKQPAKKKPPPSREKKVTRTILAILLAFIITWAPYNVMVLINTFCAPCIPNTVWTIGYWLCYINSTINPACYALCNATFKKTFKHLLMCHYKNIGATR
Experimental: as §2, §3, §4

Row | IC50 [1] [nM] | IC50 [5] [nM] | IC50 [7] [nM] | Structure (SMILES) | ED50 (vagal bradycardia (M2)) [µmol/kg] | ED50 [2] [µmol/kg] | ED50 [3] [µmol/kg] | ED50 [4] [µmol/kg] | ED50 (secretion of saliva) [µmol/kg] | ED50 [6] [µmol/kg]
1 | 200 | 60 | 5 | Cc1scc2c1N(C(=O)CN1CCC(CCCN3CCCCC3)CC1)c1ccccc1NC2=O [A] | 0.0724 | 1.51 | 2.75 | 0.282 | 6.31 | 0.123
2 | 550 | 200 | 20 | O=C1Nc2cccnc2N(C(=O)CN2CCC(CCCN3CCCCC3)CC2)c2ccccc21 [B] | – | – | 1.82 | 0.468 | – | 0.123
3 | 200 | 50 | 9 | O=C1Nc2cccnc2N(C(=O)CN2CCC(CCCCN3CCCCC3)CC2)c2ccccc21 [C] | 0.115 | 3.8 | 2.63 | 0.661 | > 31.6 | 0.0871
4 | 1500 | 500 | 50 | CN1CCC(CCCC2CCN(CC(=O)N3c4ccccc4C(=O)Nc4cccnc43)CC2)CC1 [D] | – | – | > 10 | 0.851 | – | 0.355

More lines, now with the values behind:

Row | Structure (SMILES) | IC50 [1] [nM] | IC50 [5] [nM] | IC50 [7] [nM] | ED50 (vagal bradycardia (M2)) [µmol/kg] | ED50 [2] [µmol/kg] | ED50 [3] [µmol/kg] | ED50 [4] [µmol/kg] | ED50 (secretion of saliva) [µmol/kg] | ED50 [6] [µmol/kg]
5 | CN1CCN(CC(=O)N2c3ccccc3C(=O)Nc3cccnc32)CC1 [F] | – | – | – | – | – | 4.37 | 0.269 | – | 1.41
6 | CN1[C@@H]2CC[C@H]1CC(OC(=O)C(CO)c1ccccc1)C2 (stereo partly drawn) [G] | – | – | – | 0.0115 | 0.0457 | 0.0933 | – | – | 0.02
7 | CCN(CC)CC1CCCCN1CC(=O)N1c2ccccc2C(=O)Nc2cccnc21 (stereo not drawn) [Substance E, 11-[[2-[(diethylamino)methyl]-1-piperidinyl]acetyl]-5,11-dihydro-6H-pyrido [2,3-b][1,4]benzodiazepin-6-one, reference compound] | – | – | – | 0.38 | – | 18.6 | 2.63 | 10 | 1.45
